What all share (type): functional, cell-based
Holding throughout (conditions): oocyte

Data set [1] concerns the target T1, Hepatic sodium/bile acid cotransporter (Rattus norvegicus, UniProt P26435).
T1 sequence (P26435 whole entry): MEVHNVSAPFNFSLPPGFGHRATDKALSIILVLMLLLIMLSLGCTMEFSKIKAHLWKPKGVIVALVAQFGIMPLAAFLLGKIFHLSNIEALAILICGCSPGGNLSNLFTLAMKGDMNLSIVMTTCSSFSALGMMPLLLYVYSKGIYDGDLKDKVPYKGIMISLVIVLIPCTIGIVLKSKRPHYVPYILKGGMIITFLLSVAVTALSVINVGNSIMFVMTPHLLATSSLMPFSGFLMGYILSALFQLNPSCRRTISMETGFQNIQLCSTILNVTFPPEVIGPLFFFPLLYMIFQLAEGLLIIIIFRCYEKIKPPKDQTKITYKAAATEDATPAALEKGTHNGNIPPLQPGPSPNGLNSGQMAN
As to the kind of experiment: TP_TRANSPORTER: inhibition of Taurocholate uptake (Taurochorate: 17 uM, Probenecid: 1000 uM) in Xenopus laevis oocytes.

The target of data set [2] is T1, Hepatic sodium/bile acid cotransporter. As to the kind of experiment: TP_TRANSPORTER: inhibition of Taurocholate uptake (Taurochorate: 17 uM, BSP: 100 uM) in Xenopus laevis oocytes.
Data set [3] has the same target. As to the kind of experiment: TP_TRANSPORTER: inhibition of Taurocholate uptake (Taurochorate: 17 uM, TCDC: 100 uM) in Xenopus laevis oocytes.
For data set [4] the target is unchanged. As to the kind of experiment: TP_TRANSPORTER: inhibition of Taurocholate uptake (Taurochorate: 17 uM, Bumetanide: 500 uM) in Xenopus laevis oocytes.

With `CCCN(CCC)S(=O)(=O)c1ccc(C(=O)O)cc1` [PROBENECID], in data set [1], the Activity entry is “inhibitor [(at a rough estimate) 70 % of control]”.

As to `O=C1OC(c2ccc(O)c(S(=O)(=O)[O-])c2)(c2ccc(O)c(S(=O)(=O)[O-])c2)c2c(Br)c(Br)c(Br)c(Br)c21.[Na+].[Na+]` [SULFOBROMOPHTHALEIN SODIUM], the Activity entry in data set [2] was “inhibitor [(at a rough estimate) 25 % of control]”.

With `C[C@H](CCC(=O)NCCS(=O)(=O)O)[C@H]1CC[C@H]2[C@@H]3[C@H](O)C[C@@H]4C[C@H](O)CC[C@]4(C)[C@H]3CC[C@]12C` [TAUROCHENODEOXYCHOLATE], in data set [3], the Activity entry was “inhibitor [(at a rough estimate) 15 % of control]”.

Take `CCCCNc1cc(C(=O)O)cc(S(N)(=O)=O)c1Oc1ccccc1` [BUMETANIDE]: the Activity entry in data set [4] was “inhibitor [(at a rough estimate) 50 % of control]”.

Values taken from ChEMBL document CHEMBL2074189, “Functional expression cloning and characterization of the hepatocyte Na+/bile acid cotransport system” (Proc Natl Acad Sci U S A, 1991).
